Reference: patent US8618068B2, “Methods and low dose regimens for treating red blood cell disorders” (priority 2009, dated 2013)
Values joined by “and” are separate entries in the source; they are usually repeats but may differ in a detail not shown here. Identical values can stand only once.

Columns and labels:
F-cells = F-cells in Bfu-e erythroid progenitor cultures; assay type: cell-based
in vivo = experiment: in vivo; set-up: species or system baboon; conditions: po
Method: Additionally, the pharmacokinetic profile of DMB was evaluated in a female baboon who received an IV dose of 50 mg/kg and single oral doses of 100, 150 and 200 mg/kg. Following IV administration, DMB concentrations peaked at the end of dose administration and decayed in a log-linear fashion with no obvious appearance of a distribution phase and after oral administration, the concentration reached a peak within 2 hours after dosing and subsequently decayed in a log-linear fashion at all three dose levels. There was a secondary DMB peak which occurred at 6 hours after dosing of the 200 mg/kg oral dose (FIG. 4).
Vz/F was consistently smaller as the dose was increased.

[1] = Toxicokinetics, 26-week rat study; assay type: in vivo, Sprague Dawley rats; conditions: for AUC(0-inf): both sexes, Sprague Dawley, rat, plasma, po, mean of male and female rats
Method: DMB was administered to Sprague Dawley rats daily for 26 weeks at doses of 50, 100 and 500 mg/kg/day via oral gavage. Plasma levels of DMB were measured at 1 to 24 hours post-dose on Days 1 and 181. […] Systemic exposure increased with increasing dose level and was greater than dose-proportional on Day 0 and Day 181. The peak and extent of systemic exposure of Sprague Dawley rats to DMB were similar in males and females. Systemic exposure values on Day 181 ranged from 137% to 218% of the values at Day 0 indicating an accumulation of DMB during this time period.
Toxicokinetic information from the 26-week rat (Table 7) and 26-week dog toxicity studies (Table 8) are compared to systemic exposure (AUC) levels determined in a clinical study.

[2] = 28-Day repeat dose toxicity study in rats; assay type: in vivo, Sprague Dawley rats
From the text: Completed toxicology studies conducted with DMB include a single-dose toxicity study in Sprague-Dawley rats, escalating dose toxicity study in Beagle dogs, a repeat dose study of 14-Day duration in Sprague-Dawley rats and repeat-dose toxicity studies of 28-Day duration in Sprague-Dawley rats and Beagle dogs, and 26-Week studies in Sprague-Dawley rats and Beagle dogs. […] Reproductive toxicity studies include two dose-range finding studies, one in Sprague-Dawley rats, the other in New Zealand white rabbits. DMB was administered once a day (QD) orally via gavage; doses are expressed as the sodium salt. In addition, an array of genotoxicity studies were conducted with DMB.
There were no histologic correlates with these findings. […] These changes in organ weight were not associated with abnormal pathology and not considered adverse.
Kidney weight was not increased in the single surviving 2,000/1,500 mg/kg/day male. […] There were no test article-related histomorphologic alterations consistent with the increase in absolute or relative kidney weights at either dose level.
Several clinical pathology changes occurred in the 28-Day Sprague Dawley rat study. […] At ≧1,000 mg/kg/day, decreases in Hgb, Hct, MCV, and MCHC, were observed. Decreases in Hgb, Hct, and MCV were also seen in 500 mg/kg/day females. Activated partial thromboplastin time was decreased in males at ≧1,000 mg/kg/day and females at 2,000/1,500 mg/kg/day and prothrombin time was increased in males of both groups. […] These serum chemistry changes were associated with the decreases seen in body weights and food consumption in these groups.

[3] = Phase 2 trial in thalassemia intermedia patients, safety; assay type: in vivo, human
Method: A randomized, doubled blind, placebo-controlled, multiple ascending dose Phase I/II trial was conducted in 21 adult patients with beta thalassemia intermedia, including 14 patients with HbE/β^0 thalassemia from Thailand and 7 patients with β^+/β^0 thalassemia (including 12 different beta globin gene mutations). Study medication was taken as a single daily dose of DMB for 8 weeks followed minimally by a 4 week break and follow-up period. Four ascending dose levels (10, 20, 30, and 40 mg/kg/day) were sequentially evaluated in 4 dose level cohorts after the preceding dose and schedule were determined safe by an independent and unblinded Safety Monitoring Committee.
All treatment groups had two placebo patients; placebo patients in the first dose group were randomized to treatment in the second dose group. Ten patients in Thailand (all HbE type) were treated with 10 mg/kg (8 active/2 placebo) followed by eight patients in Thailand who were treated followed by 30 mg/kg (6 active/2 placebo). Eleven patients (4 That, 7 Lebanese) were treated with 20 mg/kg followed by 40 mg/kg (9 active [6 Lebanese/3 That]/2 placebo). Patients ranged in age from 17 to 49 with a median age of 31 and were comprised for 16 females and 5 males.
Patients were monitored every 2 weeks for laboratory studies, physical examinations, and adverse events. Further, patients were followed for hematologic parameters primarily focusing on hemoglobin and fetal hemoglobin (HbF). In addition, pharmacokinetic samples were obtained on Day 0 and 13, at pre-dose and 2, 4, 6, 8, 12, and 24 hours post-dosing. Hemoglobin was measured at each site using standard hematology equipment. HbF was measured using Varian HPLC. […] Adverse events in treated subjects included headache, upper respiratory infection, pyrexia, fatigue, nausea, and dizziness, but the rates of such events were not markedly different from those observed in the placebo-treated subjects.

Question: Which “F-cells increase above F-cell levels in control cultures” value (F-cells) does the source give for `CCC(C)(C)C(=O)[O-].[Na+]` [DMB, Sodium 2,2-dimethylbutyrate] here?
Answer: 32-71%

Question: And the half-life (in vivo; female, monkey)?
Answer: 2.89 to 6.92 h

Question: What about the bioavailability (in vivo; female, monkey, 100 mg/kg) of the same compound?
Answer: 71.8%

Question: What about the Tmax (in vivo; female, monkey, 200 mg/kg) of the same compound?
Answer: 1.5 to 2 h

Question: What about the “CL/F at 200 mg/kg relative to the lower doses” value (in vivo; 200 mg/kg) of the same compound?
Answer: about ¼

Question: What about the “time of peak plasma concentrations” value ([1]; Day 0) of the same compound?
Answer: 1 h

Question: What about the AUC(0-inf) ([1]; 50 mg/kg) of the same compound?
Answer: 125 µg·h/mL

Question: What about the AUC(0-inf) ([1]; 100 mg/kg) of the same compound?
Answer: 278 µg·h/mL

Question: What about the AUC(0-inf) ([1]; 500 mg/kg (NOAEL)) of the same compound?
Answer: 3440 µg·h/mL

Question: And the “rat AUC0-∞ relative to human AUC0-∞” value ([1]; rat 50 mg/kg vs human 2 mg/kg)?
Answer: 3.2X

Question: And the “rat AUC0-∞ relative to human AUC0-∞” value ([1]; rat 50 mg/kg vs human 5 mg/kg)?
Answer: 0.4X

Question: What about the “rat AUC0-∞ relative to human AUC0-∞” value ([1]; rat 50 mg/kg vs human 10 mg/kg) of the same compound?
Answer: 0.2X

Question: What about the “rat AUC0-∞ relative to human AUC0-∞” value ([1]; rat 50 mg/kg vs human 20 mg/kg) of the same compound?
Answer: 0.1X

Question: What about the “rat AUC0-∞ relative to human AUC0-∞” value ([1]; rat 100 mg/kg vs human 2 mg/kg) of the same compound?
Answer: 7.3X

Question: What about the “rat AUC0-∞ relative to human AUC0-∞” value ([1]; rat 100 mg/kg vs human 5 mg/kg) of the same compound?
Answer: 0.9X

Question: What about the “rat AUC0-∞ relative to human AUC0-∞” value ([1]; rat 100 mg/kg vs human 10 mg/kg) of the same compound?
Answer: 0.5X

Question: And the “rat AUC0-∞ relative to human AUC0-∞” value ([1]; rat 100 mg/kg vs human 20 mg/kg)?
Answer: 0.2X

Question: And the “rat AUC0-∞ relative to human AUC0-∞” value ([1]; rat 500 mg/kg (NOAEL) vs human 2 mg/kg)?
Answer: 91X

Question: And the “rat AUC0-∞ relative to human AUC0-∞” value ([1]; rat 500 mg/kg (NOAEL) vs human 5 mg/kg)?
Answer: 10.7X

Question: And the “rat AUC0-∞ relative to human AUC0-∞” value ([1]; rat 500 mg/kg (NOAEL) vs human 10 mg/kg)?
Answer: 6.4X

Question: And the “rat AUC0-∞ relative to human AUC0-∞” value ([1]; rat 500 mg/kg (NOAEL) vs human 20 mg/kg)?
Answer: 2.9 X

Question: What about the “RBC, lymphocyte, and leukocyte counts” value ([2]; 2,000/1,500 mg/kg/day) of the same compound?
Answer: decreased

Question: And the NOAEL at 28 days ([2]; female, Sprague Dawley, rat, in vivo)?
Answer: 200 mg/kg/day and 32 mg/kg

Question: What about the “aspartate aminotransferase (AST)” value ([2]; males 1,000 mg/kg/day) of the same compound?
Answer: slight increases

Question: What about the “alanine aminotransferase (ALT)” value ([2]; males 1,000 mg/kg/day, females 2,000/1,500 mg/kg/day) of the same compound?
Answer: slight increases

Question: What about the “mean absolute and relative kidney weights” value ([2]; males 500 and 1,000 mg/kg/day, females 1,000 mg/kg/day) of the same compound?
Answer: statistically significant, test article-related increases

Question: And the “mean absolute and relative liver weights” value ([2]; males and females at 1,000 mg/kg/day)?
Answer: statistically significant, test article-related increases

Question: And the prothrombin time ([2]; males of both groups)?
Answer: increased

Question: And the “Activated partial thromboplastin time” value ([2]; males ≧1,000 mg/kg/day, females 2,000/1,500 mg/kg/day)?
Answer: decreased

Question: And the “Hgb, Hct, MCV, and MCHC” value ([2]; ≧1,000 mg/kg/day)?
Answer: decreases

Question: And the Dizziness ([3]; 10 mg/kg)?
Answer: 2 (25) n (%)

Question: What about the Fatigue ([3]; 10 mg/kg) of the same compound?
Answer: 1 (13) n (%)

Question: And the Headache ([3]; 10 mg/kg)?
Answer: 5 (63) n (%)

Question: And the Nausea ([3]; 10 mg/kg)?
Answer: 0 n (%)

Question: And the Pyrexia ([3]; 10 mg/kg)?
Answer: 3 (38) n (%)

Question: And the “Serious adverse event: Palpitations” value ([3]; 10 mg/kg)?
Answer: 1 (13) 10 mg/kg n (%)

Question: And the “Treatment Related? (Palpitations)” value ([3]; 10 mg/kg)?
Answer: Not related to treatment

Question: And the “Upper Respiratory Tract Infection” value ([3]; 10 mg/kg)?
Answer: 5 (63) n (%)

Question: And the “subjects who discontinued study medication due to anemia” value ([3]; 10 mg/kg, considered not related to study medication)?
Answer: Two

Question: And the Dizziness ([3]; 20 mg/kg)?
Answer: 2 (22) n (%)

Question: What about the Fatigue ([3]; 20 mg/kg) of the same compound?
Answer: 0 n (%)

Question: And the Headache ([3]; 20 mg/kg)?
Answer: 3 (33) n (%)

Question: What about the Nausea ([3]; 20 mg/kg) of the same compound?
Answer: 2 (22) n (%)

Question: And the Pyrexia ([3]; 20 mg/kg)?
Answer: 0 n (%)

Question: What about the “Serious adverse event: Suprapubic Pain” value ([3]; 20 mg/kg) of the same compound?
Answer: 1 (11) 20 mg/kg n (%)

Question: And the “Treatment Related? (Suprapubic Pain)” value ([3]; 20 mg/kg)?
Answer: Unlikely related

Question: What about the “Upper Respiratory Tract Infection” value ([3]; 20 mg/kg) of the same compound?
Answer: 2 (22) n (%)

Question: And the Dizziness ([3]; 30 mg/kg)?
Answer: 0 n (%)

Question: And the Fatigue ([3]; 30 mg/kg)?
Answer: 0 n (%)

Question: What about the Headache ([3]; 30 mg/kg) of the same compound?
Answer: 2 (33) n (%)

Question: What about the Nausea ([3]; 30 mg/kg) of the same compound?
Answer: 0 n (%)

Question: What about the Pyrexia ([3]; 30 mg/kg) of the same compound?
Answer: 2 (33) n (%)

Question: What about the “Upper Respiratory Tract Infection” value ([3]; 30 mg/kg) of the same compound?
Answer: 1 (17) n (%)

Question: And the Dizziness ([3]; 40 mg/kg)?
Answer: 1 (11) n (%)

Question: What about the Fatigue ([3]; 40 mg/kg) of the same compound?
Answer: 4 (44) n (%)

Question: And the Headache ([3]; 40 mg/kg)?
Answer: 1 (11) n (%)

Question: What about the Nausea ([3]; 40 mg/kg) of the same compound?
Answer: 3 (33) n (%)

Question: And the Pyrexia ([3]; 40 mg/kg)?
Answer: 1 (11) n (%)

Question: What about the “Serious adverse event: Gastritis” value ([3]; 40 mg/kg) of the same compound?
Answer: 1 (11) 40 mg/kg n (%)

Question: What about the “Treatment Related? (Gastritis)” value ([3]; 40 mg/kg) of the same compound?
Answer: Not related to treatment

Question: And the “Upper Respiratory Tract Infection” value ([3]; 40 mg/kg)?
Answer: 1 (11) n (%)

Question: What about the tolerability ([3]; 10 to 40 mg/kg/day, 8 weeks) of the same compound?
Answer: well tolerated

Question: And the “Serious adverse event: Gastroenteritis” value ([3]; HQK-1001 groups)?
Answer: 0 n (%)

Question: And the “Serious adverse event: Upper Respiratory Infection” value ([3]; HQK-1001 groups)?
Answer: 0 n (%)
